Data reported in patent US20230277452A1, “COMPOSITIONS, DEVICES AND METHODS FOR TREATING NASAL, OTIC AND OTHER TISSUE INFECTION AND/OR INFLAMMATION” (priority 2020, published 2023).

Legend:
[1] = in vivo
Protocol: The control article was 0.9% saline.
Blood was collected (via a jugular vein cannula inserted during surgery) during the 10-day post-dose phase for pharmacokinetics, hematology, clinical chemistry, glucose, and morning cortisol analysis.
Because of the variability in the volume of the sinus in sheep, the total volume varied from 5 to 15 mL. Doses calculated by body weight and body surface area (BSA) are also shown.

[2] = Forced degradation of neat mometasone furoate monohydrate, percent recovery and degradant peaks by HPLC; format: physicochemical; parameters: key to Degradant peak, RRT 0.61 with respect to MFM / Degradant peak, RRT 0.71 with respect to MFM / Degradant peak, RRT 0.79 with respect to MFM / Degradant peak, RRT 0.87* with respect to MFM / Degradant peak, RRT 1.07 with respect to MFM / Degradant peak, RRT 1.12* with respect to MFM / Degradant peak, RRT 0.96* with respect to MFM: ≥0.05% Peak Area; detected above the 0.05% cutoff; “—” indicates no peak; settings: for Degradant peak, RRT 0.87* with respect to MFM / Degradant peak, RRT 0.96* with respect to MFM / Degradant peak, RRT 1.12* with respect to MFM: related substance; for Actual Amount: neat MFM
Protocol: Degradation and impurity analysis of the creams was performed using HPLC. The following parameters were used for the analysis of mometasone furoate monohydrate.
Neat mometasone furoate monohydrate (MFM) material was degraded and analyzed for potential chromatographic interference. Briefly, neat MFM was exposed to various conditions to induce degradation including heat (60° C./5 days), light (6 inches away from a white bench light for 5 days), acid (0.1N HCl for 1 hour followed by neutralization with 0.1N NaOH), base (0.1N NaOH for 1 hour followed by neutralization with 0.1N HCl), and oxidation (3% H2O2 for 1 hour). All samples including the degraded samples, control samples (dissolved in HPLC-grade methanol), and the reference solution were analyzed.
Percent recovery is provided in Table 48 below for each condition.
Table 49 below provides the Relative Retention Times (RRTs) and detection ≥0.05% for the samples.

[3] = Recovery of force-degraded MFM spiked into placebo cream and of active cream (0.1% MFM), HPLC; format: physicochemical; settings: for Peak Area MFM / Peak Area RRT = 0.61 / Peak Area RRT = 0.71 / Peak Area RRT = 0.79 / Peak Area RRT = 0.87 / Peak Area RRT = 0.96 / Peak Area RRT = 1.07 / Peak Area RRT = 1.12 / Total MFM-Related Area: Spiked into placebo
Protocol: MFM neat and degraded materials were spiked into placebo cream (lot #2020-11-01) to investigate potential partitioning effects and peak interferences and to compare spiked and active cream samples by the procedure in Table 50 with the exception that for acid, base and peroxide degradations, the additions of HCl, NaOH and peroxide were calculated accordingly.
Percent recovery of Force-Degraded Materials Spiked into Placebo is provided in Table 51 below while recovery of active cream formulation (0.1% MFM) is provided in Table 52 below.

[4] = degraded neat material, 0.1N HC1
[5] = degraded neat material, 0.1N NaOH
[6] = degraded neat material, 3% H2O2
[7] = degraded neat material, 60° C. for 5 days
[8] = degraded neat material, White light for 5 days

CCC(=O)O[C@]1(C(=O)CO)[C@@H](C)C[C@H]2[C@@H]3CCC4=CC(=O)C=C[C@]4(C)[C@@]3(F)[C@@H](O)C[C@@]21C [Betamethasone 17-propionate, betamethasone 17-propionate]
plasma levels detected through ([1]; in vivo): 3 days post-dose
Tmax ([1]; sheep plasma, intra-sinus 0.05% betamethasone dipropionate cream, median (range), n = 6): 0.5 (0.5-2) hr
AUCinf ([1]; sheep, in vivo): 59.3 ± 44.8 ng·h/mL
AUClast ([1]; sheep, in vivo): 58.3 ± 44.7 ng·h/mL
Apparent half-life ([1]; sheep, in vivo): 9.5 ± 2.2 h
Cmax ([1]; sheep, in vivo): 8,279 ± 3,376 pg/ml

C[C@@H]1C[C@H]2[C@@H]3CCC4=CC(=O)C=C[C@]4(C)[C@@]3(Cl)[C@@H](O)C[C@]2(C)[C@@]1(OC(=O)c1ccco1)C(=O)CCl [MFM, mometasone furoate monohydrate]
Degradant peak, RRT 0.61 with respect to MFM [2, 4]: detected (≥0.05% Peak Area; detected above the 0.05% cutoff)
Degradant peak, RRT 0.71 with respect to MFM [2, 4]: detected (≥0.05% Peak Area; detected above the 0.05% cutoff)
Degradant peak, RRT 0.79 with respect to MFM [2, 4]: detected (≥0.05% Peak Area; detected above the 0.05% cutoff)
Degradant peak, RRT 1.07 with respect to MFM [2, 4]: detected (≥0.05% Peak Area; detected above the 0.05% cutoff)
Degradant peak, RRT 0.87* with respect to MFM [2, 4]: detected (≥0.05% Peak Area; detected above the 0.05% cutoff)
Degradant peak, RRT 0.96* with respect to MFM [2, 4]: detected (≥0.05% Peak Area; detected above the 0.05% cutoff)
Degradant peak, RRT 1.12* with respect to MFM [2, 4]: detected (≥0.05% Peak Area; detected above the 0.05% cutoff)
Degradant peak, RRT 0.61 with respect to MFM [2, 5]: —
Degradant peak, RRT 0.71 with respect to MFM [2, 5]: —
Degradant peak, RRT 0.79 with respect to MFM [2, 5]: —
Degradant peak, RRT 1.07 with respect to MFM [2, 5]: detected (≥0.05% Peak Area; detected above the 0.05% cutoff)
Degradant peak, RRT 0.87* with respect to MFM [2, 5]: —
Degradant peak, RRT 0.96* with respect to MFM [2, 5]: detected (≥0.05% Peak Area; detected above the 0.05% cutoff)
Degradant peak, RRT 1.12* with respect to MFM [2, 5]: detected (≥0.05% Peak Area; detected above the 0.05% cutoff)
Degradant peak, RRT 0.61 with respect to MFM [2, 6]: —
Degradant peak, RRT 0.71 with respect to MFM [2, 6]: —
Degradant peak, RRT 0.79 with respect to MFM [2, 6]: —
Degradant peak, RRT 1.07 with respect to MFM [2, 6]: —
Degradant peak, RRT 0.87* with respect to MFM [2, 6]: —
Degradant peak, RRT 0.96* with respect to MFM [2, 6]: detected (≥0.05% Peak Area; detected above the 0.05% cutoff)
Degradant peak, RRT 1.12* with respect to MFM [2, 6]: —
Degradant peak, RRT 0.61 with respect to MFM [2, 7]: —
Degradant peak, RRT 0.71 with respect to MFM [2, 7]: —
Degradant peak, RRT 0.79 with respect to MFM [2, 7]: —
Degradant peak, RRT 1.07 with respect to MFM [2, 7]: —
Degradant peak, RRT 0.87* with respect to MFM [2, 7]: —
Degradant peak, RRT 0.96* with respect to MFM [2, 7]: detected (≥0.05% Peak Area; detected above the 0.05% cutoff)
Degradant peak, RRT 1.12* with respect to MFM [2, 7]: —
Degradant peak, RRT 0.61 with respect to MFM [2, 8]: —
Degradant peak, RRT 0.71 with respect to MFM [2, 8]: —
Degradant peak, RRT 0.79 with respect to MFM [2, 8]: —
Degradant peak, RRT 1.07 with respect to MFM [2, 8]: —
Degradant peak, RRT 0.87* with respect to MFM [2, 8]: —
Degradant peak, RRT 0.96* with respect to MFM [2, 8]: —
Degradant peak, RRT 1.12* with respect to MFM [2, 8]: —
Actual Amount ([2]; Acid (0.1N HCl, 1 hour)): 240.289 µg/mL
Actual Amount ([2]; Base (0.1N NaOH, 1 hour)): 6.091 µg/mL
Actual Amount ([2]; Control): 254.279 µg/mL
Actual Amount ([2]; Heat (60° C./5 days)): 249.211 µg/mL
Actual Amount ([2]; Light (white light, 5 days)): 249.916 µg/mL
Actual Amount ([2]; Peroxide (3% H2O2, 1 hour)): 262.576 µg/mL
Degradant peak, RRT 0.61 with respect to MFM ([2]; neat material, 4° C. (Control)): —
Degradant peak, RRT 0.71 with respect to MFM ([2]; neat material, 4° C. (Control)): —
Degradant peak, RRT 0.79 with respect to MFM ([2]; neat material, 4° C. (Control)): —
Degradant peak, RRT 1.07 with respect to MFM ([2]; neat material, 4° C. (Control)): —
Degradant peak, RRT 0.87* with respect to MFM ([2]; neat material, 4° C. (Control)): —
Degradant peak, RRT 0.96* with respect to MFM ([2]; neat material, 4° C. (Control)): detected (≥0.05% Peak Area; detected above the 0.05% cutoff)
Degradant peak, RRT 1.12* with respect to MFM ([2]; neat material, 4° C. (Control)): —
degradation due to the cream making process ([3]; 0.1% MFM cream, HPLC): no apparent degradation
Peak Area MFM ([3]; Acid): 116.720
Peak Area RRT = 0.61 ([3]; Acid): no peaks
Peak Area RRT = 0.71 ([3]; Acid): no peaks
Peak Area RRT = 0.79 ([3]; Acid): no peaks
Peak Area RRT = 0.87 ([3]; Acid): no peaks
Peak Area RRT = 0.96 ([3]; Acid): 2.964
Peak Area RRT = 1.07 ([3]; Acid): 0.05
Peak Area RRT = 1.12 ([3]; Acid): 0.353
Total MFM-Related Area ([3]; Acid): 120.087
Peak Area MFM ([3]; Base): 2.991
Peak Area RRT = 0.61 ([3]; Base): 0.097
Peak Area RRT = 0.71 ([3]; Base): 0.143
Peak Area RRT = 0.79 ([3]; Base): 0.433
Peak Area RRT = 0.87 ([3]; Base): 5.187
Peak Area RRT = 0.96 ([3]; Base): 14.967
Peak Area RRT = 1.07 ([3]; Base): 55.374
Peak Area RRT = 1.12 ([3]; Base): 10.016
Total MFM-Related Area ([3]; Base): 89.208
Peak Area MFM ([3]; Control): 125.120
Peak Area RRT = 0.61 ([3]; Control): no peaks
Peak Area RRT = 0.71 ([3]; Control): no peaks
Peak Area RRT = 0.79 ([3]; Control): no peaks
Peak Area RRT = 0.87 ([3]; Control): no peaks
Peak Area RRT = 0.96 ([3]; Control): 0.171
Peak Area RRT = 1.07 ([3]; Control): no peaks
Peak Area RRT = 1.12 ([3]; Control): no peaks
Total MFM-Related Area ([3]; Control): 125.291
Peak Area MFM ([3]; Heat): 122.536
Peak Area RRT = 0.61 ([3]; Heat): no peaks
Peak Area RRT = 0.71 ([3]; Heat): no peaks
Peak Area RRT = 0.79 ([3]; Heat): no peaks
Peak Area RRT = 0.87 ([3]; Heat): no peaks
Peak Area RRT = 0.96 ([3]; Heat): 0.161
Peak Area RRT = 1.07 ([3]; Heat): no peaks
Peak Area RRT = 1.12 ([3]; Heat): no peaks
Total MFM-Related Area ([3]; Heat): 122.697
Peak Area MFM ([3]; Light): 123.671
Peak Area RRT = 0.61 ([3]; Light): no peaks
Peak Area RRT = 0.71 ([3]; Light): no peaks
Peak Area RRT = 0.79 ([3]; Light): no peaks
Peak Area RRT = 0.87 ([3]; Light): no peaks
Peak Area RRT = 0.96 ([3]; Light): 0.152
Peak Area RRT = 1.07 ([3]; Light): no peaks
Peak Area RRT = 1.12 ([3]; Light): no peaks
Total MFM-Related Area ([3]; Light): 123.823
Peak Area MFM ([3]; Peroxide): 128.187
Peak Area RRT = 0.61 ([3]; Peroxide): no peaks
Peak Area RRT = 0.71 ([3]; Peroxide): no peaks
Peak Area RRT = 0.79 ([3]; Peroxide): no peaks
Peak Area RRT = 0.87 ([3]; Peroxide): no peaks
Peak Area RRT = 0.96 ([3]; Peroxide): 0.176
Peak Area RRT = 1.07 ([3]; Peroxide): no peaks
Peak Area RRT = 1.12 ([3]; Peroxide): no peaks
Total MFM-Related Area ([3]; Peroxide): 128.363
